One experiment addresses T1, PI3Kγ (Homo sapiens, UniProt P48736).
T1 construct: endogenous in cells; host or cells: Jurkat (ATCC TIB-152, clone E6-1) and Ramos (ATCC CRL-1596), 1:1 lysate mix
The experiment in a line: kinobeads assay, PI3Kγ. The experiment is classed as binding. The settings on record: 1:1 mix of Jurkat and Ramos cell lysates, read-out: Inhibition values (IC50 in μM) as determined in the kinobeads assay, PI3Kγ. As to the method:
(§1) The compounds of the present invention as described were tested in the mTOR kinobeads assay as described below. Briefly, test compounds (at various concentrations) and the affinity matrix (1:1 mixture of beads with immobilized phenylthiazole ligand 1 and beads with immobilized phenylmorpholin-chromen ligand; WO 2009/098021) were added to cell lysate aliquots and allowed to bind to the proteins in the lysate sample. After the incubation time the beads with captured proteins were separated from the lysate. Bound proteins were then eluted and the presence of mTOR, PI3Kα, PI3Kβ, PI3Kγ, PI3Kδ and DNA-dependent protein kinase (DNA-PK) was detected and quantified using a specific antibody in a dot blot procedure and the Odyssey infrared detection system. Dose response curves for individual kinases were generated and IC50 values calculated. Kinobeads assays for PI3 kinases (WO-A 2008/015013) and for kinase selectivity profiling (WO 2009/098021) have been previously described.
(§2) Washing of Affinity Matrix
(§3) The affinity matrix was washed two times with 15 ml of 1×DP buffer containing 0.2% NP40 (IGEPAL® CA-630, Sigma, #13021) and then resupended in 5.5 ml of 1×DP buffer containing 0.2% NP40 (10% beads slurry).
(§4) 5×DP buffer: 250 mM Tris-HCl pH 7.4, 25% Glycerol, 7.5 mM MgCl2, 750 mM NaCl, 5 mM Na3VO4, filter the 5×-lysis buffer through 0.22 μm filter and store in aliquots at −80° C. The 5×DP buffer is diluted to 1×DP buffer containing 1 mM DTT and 25 mM NaF.
(§5) Preparation of Test Compounds
(§6) Stock solutions of test compounds were prepared in DMSO. In a 96 well plate 30 μl solution of diluted test compounds at 5 mM in DMSO were prepared. Starting with this solution a 1:3 dilution series (9 steps) was prepared. For control experiments (no test compound) a buffer containing 2% DMSO was used. Compound Pi-103 (Calbiochem catalogue number 528100) served as a positive control.
(§7) Cell Culture and Preparation of Cell Lysates
(§8) Jurkat cells (ATCC catalogue number TIB-152 Jurkat, clone E6-1) and Ramos cells (ATCC number CRL-1596) were grown in 1 litre Spinner flasks (Integra Biosciences, #182101) in suspension in RPMI 1640 medium (Invitrogen, #21875-034) supplemented with 10% Fetal Bovine Serum (Invitrogen) at a density between 0.15×10^6 and 1.2×10^6 cells/ml. Cells were harvested by centrifugation, washed once with 1×PBS buffer (Invitrogen, #14190-094) and cell pellets were frozen in liquid nitrogen and subsequently stored at −80° C.
(§9) Cells were homogenized in a Potter S homogenizer in lysis buffer: 50 mM Tris-HCl, 0.8% NP40, 5% glycerol, 150 mM NaCl, 1.5 mM MgCl2, 25 mM NaF, 1 mM sodium vanadate, 1 mM DTT, pH 7.5. One complete EDTA-free tablet (protease inhibitor cocktail, Roche Diagnostics, 1873580) per 25 ml buffer was added. The material was dounced 10 times using a mechanized POTTER S, transferred to 50 ml falcon tubes, incubated for 30 minutes on ice and spun down for 10 min at 20,000 g at 4° C. (10,000 rpm in Sorvall SLA600, precooled). The supernatant was transferred to an ultracentrifuge (UZ)-polycarbonate tube (Beckmann, 355654) and spun for 1 hour at 100.000 g at 4° C. (33.500 rpm in Ti50.2, precooled). The supernatant was transferred again to a fresh 50 ml falcon tube, the protein concentration was determined by a Bradford assay (BioRad) and samples containing 50 mg of protein per aliquot were prepared. The samples were immediately used for experiments or frozen in liquid nitrogen and stored frozen at −80° C.
(§10) Cell lysate (approximately 50 mg protein per plate) was thawed in a water bath at room temperature and then kept on ice. To the thawed cell lysate 1×DP 0.8% NP40 buffer containing protease inhibitors (1 tablet for 25 ml buffer; EDTA-free protease inhibitor cocktail; Roche Diagnostics 1873580) was added in order to reach a final protein concentration of 5 mg/ml total protein. For the kinobeads experiment a 1:1 mix of Jurkat and Ramos cell lysates was used. The diluted cell lysate was stored on ice. […]

Another experiment deals with T2, PI3Kβ (Homo sapiens, UniProt P42338).
T2 construct: endogenous in cells; host or cells: Jurkat (ATCC TIB-152, clone E6-1) and Ramos (ATCC CRL-1596), 1:1 lysate mix
As to the kind of experiment: kinobeads assay, PI3Kβ. The experiment is classed as binding. To be noted: 1:1 mix of Jurkat and Ramos cell lysates, read-out: Inhibition values (IC50 in μM) as determined in the kinobeads assay, PI3Kβ. As to the method: as §1, §2, §3, §4, §5, §6, §7, §8, §9, §10

A further experiment has as its target T3, PI3Kα (Homo sapiens, UniProt P42336).
T3 construct: endogenous in cells; host or cells: Jurkat (ATCC TIB-152, clone E6-1) and Ramos (ATCC CRL-1596), 1:1 lysate mix
As to the kind of experiment: kinobeads assay, PI3Kα. The experiment is classed as binding. To be noted: 1:1 mix of Jurkat and Ramos cell lysates, read-out: Inhibition values (IC50 in μM) as determined in the kinobeads assay, PI3Kα. Here is the method: as §1, §2, §3, §4, §5, §6, §7, §8, §9, §10

In the next experiment the target is T4, mTOR (Homo sapiens, UniProt P42345).
T4 construct: endogenous in cells; host or cells: Jurkat (ATCC TIB-152, clone E6-1) and Ramos (ATCC CRL-1596), 1:1 lysate mix
The experiment in a line: mTOR kinobeads assay (competition binding in cell lysate, dot blot detection). The settings on record: 1:1 mix of Jurkat and Ramos cell lysates, read-out: Inhibition values (IC50 in μM) as determined in the kinobeads assay, mTor. As to the method: Determination of the Effect of the Compounds According to the Invention on mTOR
as §1, §2, §3, §4, §5, §6, §7, §8, §9
Cell lysate (approximately 50 mg protein per plate) was thawed in a water bath at room temperature and then kept on ice. To the thawed cell lysate 1×DP 0.8% NP40 buffer containing protease inhibitors (1 tablet for 25 ml buffer; EDTA-free protease inhibitor cocktail; Roche Diagnostics 1873580) was added in order to reach a final protein concentration of 5 mg/ml total protein. For the kinobeads experiment a 1:1 mix of Jurkat and Ramos cell lysates was used. […]

The target of a further experiment is T5, PI3Kδ (Homo sapiens, UniProt O00329).
T5 construct: endogenous in cells; host or cells: Jurkat (ATCC TIB-152, clone E6-1) and Ramos (ATCC CRL-1596), 1:1 lysate mix
The experiment in a line: kinobeads assay, PI3Kδ. Type of experiment: binding. The settings on record: 1:1 mix of Jurkat and Ramos cell lysates, read-out: Inhibition values (IC50 in μM) as determined in the kinobeads assay, PI3Kδ. Here is the method: as §1, §2, §3, §4, §5, §6, §7, §8, §9, §10

The target of experiment [1] is T6, DNA-dependent protein kinase (DNA-PK) (Homo sapiens, UniProt P78527).
T6 construct: endogenous in cells; host or cells: Jurkat (ATCC TIB-152, clone E6-1) and Ramos (ATCC CRL-1596), 1:1 lysate mix
The experiment in a line: kinobeads assay, DNA-PK. The experiment is classed as binding. The settings on record: 1:1 mix of Jurkat and Ramos cell lysates, read-out: Inhibition values (IC50 in μM) as determined in the kinobeads assay, DNA-PK. As to the method: as §1, §2, §3, §4, §5, §6, §7, §8, §9, §10

Where only a bound is given, the exact number is not on record here.

As a reminder, the IC50 is the concentration that inhibits the measured activity by half.

T5 sequence (O00329 whole entry): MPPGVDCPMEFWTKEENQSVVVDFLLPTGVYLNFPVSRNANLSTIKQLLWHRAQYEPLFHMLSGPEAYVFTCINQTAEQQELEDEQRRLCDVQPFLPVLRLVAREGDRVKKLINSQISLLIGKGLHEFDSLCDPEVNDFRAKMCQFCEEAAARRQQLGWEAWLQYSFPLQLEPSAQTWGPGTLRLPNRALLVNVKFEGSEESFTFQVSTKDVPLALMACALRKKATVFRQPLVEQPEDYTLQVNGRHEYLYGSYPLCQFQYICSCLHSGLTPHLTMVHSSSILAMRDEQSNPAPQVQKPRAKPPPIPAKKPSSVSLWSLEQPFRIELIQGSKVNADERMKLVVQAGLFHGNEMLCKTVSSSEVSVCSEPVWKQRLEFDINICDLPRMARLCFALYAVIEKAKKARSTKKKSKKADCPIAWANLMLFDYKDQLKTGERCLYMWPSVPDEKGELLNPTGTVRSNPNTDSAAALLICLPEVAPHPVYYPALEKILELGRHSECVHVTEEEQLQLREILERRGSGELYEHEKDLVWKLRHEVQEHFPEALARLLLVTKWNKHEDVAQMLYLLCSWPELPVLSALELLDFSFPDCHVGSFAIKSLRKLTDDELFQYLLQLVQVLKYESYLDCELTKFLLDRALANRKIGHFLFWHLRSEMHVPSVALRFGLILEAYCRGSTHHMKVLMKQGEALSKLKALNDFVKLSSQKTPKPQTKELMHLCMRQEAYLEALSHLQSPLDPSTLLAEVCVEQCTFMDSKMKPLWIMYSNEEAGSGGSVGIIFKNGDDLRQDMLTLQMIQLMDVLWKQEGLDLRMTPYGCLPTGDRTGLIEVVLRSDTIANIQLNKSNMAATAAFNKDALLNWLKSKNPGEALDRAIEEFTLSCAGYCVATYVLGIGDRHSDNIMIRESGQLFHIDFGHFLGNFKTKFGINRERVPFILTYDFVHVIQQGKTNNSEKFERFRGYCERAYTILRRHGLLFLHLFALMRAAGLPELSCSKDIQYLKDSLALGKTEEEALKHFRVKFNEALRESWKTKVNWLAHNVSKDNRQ
T5 sequence (P27986 whole entry partner): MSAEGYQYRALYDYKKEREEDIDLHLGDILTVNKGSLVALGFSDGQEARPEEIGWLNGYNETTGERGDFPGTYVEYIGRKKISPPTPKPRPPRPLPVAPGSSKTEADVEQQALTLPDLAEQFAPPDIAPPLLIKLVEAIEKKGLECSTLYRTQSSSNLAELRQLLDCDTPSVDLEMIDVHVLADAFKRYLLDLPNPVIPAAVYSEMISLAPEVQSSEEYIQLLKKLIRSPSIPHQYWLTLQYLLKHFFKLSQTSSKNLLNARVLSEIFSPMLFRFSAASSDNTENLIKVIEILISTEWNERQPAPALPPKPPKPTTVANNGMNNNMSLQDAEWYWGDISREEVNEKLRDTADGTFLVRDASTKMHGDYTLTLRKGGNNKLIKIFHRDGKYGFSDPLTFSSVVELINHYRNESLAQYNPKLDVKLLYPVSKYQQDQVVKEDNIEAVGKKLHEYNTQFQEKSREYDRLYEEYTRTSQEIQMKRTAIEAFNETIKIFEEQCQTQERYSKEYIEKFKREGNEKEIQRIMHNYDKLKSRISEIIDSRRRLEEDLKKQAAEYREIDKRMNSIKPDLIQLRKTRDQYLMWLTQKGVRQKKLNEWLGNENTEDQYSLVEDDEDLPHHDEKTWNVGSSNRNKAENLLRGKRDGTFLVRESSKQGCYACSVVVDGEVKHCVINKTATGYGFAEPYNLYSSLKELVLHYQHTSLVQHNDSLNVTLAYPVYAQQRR
T2 sequence (P42338 whole entry): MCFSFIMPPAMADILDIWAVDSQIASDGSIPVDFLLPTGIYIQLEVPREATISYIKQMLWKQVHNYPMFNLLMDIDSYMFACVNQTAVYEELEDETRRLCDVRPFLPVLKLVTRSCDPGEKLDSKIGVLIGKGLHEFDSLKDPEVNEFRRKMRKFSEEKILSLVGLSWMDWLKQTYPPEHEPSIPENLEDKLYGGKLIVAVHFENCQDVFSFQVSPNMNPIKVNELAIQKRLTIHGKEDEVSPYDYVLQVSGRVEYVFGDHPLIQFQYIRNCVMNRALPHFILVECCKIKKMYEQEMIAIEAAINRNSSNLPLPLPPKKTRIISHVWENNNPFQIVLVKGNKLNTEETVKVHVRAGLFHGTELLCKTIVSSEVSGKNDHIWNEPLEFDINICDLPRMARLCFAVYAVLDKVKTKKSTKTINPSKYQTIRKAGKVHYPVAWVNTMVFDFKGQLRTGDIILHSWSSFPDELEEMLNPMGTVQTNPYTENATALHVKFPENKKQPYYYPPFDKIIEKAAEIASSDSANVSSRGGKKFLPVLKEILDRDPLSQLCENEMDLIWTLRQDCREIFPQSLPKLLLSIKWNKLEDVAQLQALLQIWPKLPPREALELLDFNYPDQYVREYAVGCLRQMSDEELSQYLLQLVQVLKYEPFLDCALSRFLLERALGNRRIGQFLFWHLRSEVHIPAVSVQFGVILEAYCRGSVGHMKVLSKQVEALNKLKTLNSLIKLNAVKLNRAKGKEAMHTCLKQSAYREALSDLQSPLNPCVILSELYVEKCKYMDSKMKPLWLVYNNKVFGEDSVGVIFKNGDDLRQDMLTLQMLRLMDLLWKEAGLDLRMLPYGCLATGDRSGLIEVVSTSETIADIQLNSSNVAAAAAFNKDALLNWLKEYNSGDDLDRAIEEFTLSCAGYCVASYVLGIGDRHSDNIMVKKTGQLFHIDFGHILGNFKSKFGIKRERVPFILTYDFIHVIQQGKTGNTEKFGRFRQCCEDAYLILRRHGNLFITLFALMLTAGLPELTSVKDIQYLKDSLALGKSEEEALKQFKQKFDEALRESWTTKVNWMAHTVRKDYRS
T2 sequence (P27986 whole entry partner): as the sequence (P27986 whole entry partner) above
T1 sequence (P48736 whole entry): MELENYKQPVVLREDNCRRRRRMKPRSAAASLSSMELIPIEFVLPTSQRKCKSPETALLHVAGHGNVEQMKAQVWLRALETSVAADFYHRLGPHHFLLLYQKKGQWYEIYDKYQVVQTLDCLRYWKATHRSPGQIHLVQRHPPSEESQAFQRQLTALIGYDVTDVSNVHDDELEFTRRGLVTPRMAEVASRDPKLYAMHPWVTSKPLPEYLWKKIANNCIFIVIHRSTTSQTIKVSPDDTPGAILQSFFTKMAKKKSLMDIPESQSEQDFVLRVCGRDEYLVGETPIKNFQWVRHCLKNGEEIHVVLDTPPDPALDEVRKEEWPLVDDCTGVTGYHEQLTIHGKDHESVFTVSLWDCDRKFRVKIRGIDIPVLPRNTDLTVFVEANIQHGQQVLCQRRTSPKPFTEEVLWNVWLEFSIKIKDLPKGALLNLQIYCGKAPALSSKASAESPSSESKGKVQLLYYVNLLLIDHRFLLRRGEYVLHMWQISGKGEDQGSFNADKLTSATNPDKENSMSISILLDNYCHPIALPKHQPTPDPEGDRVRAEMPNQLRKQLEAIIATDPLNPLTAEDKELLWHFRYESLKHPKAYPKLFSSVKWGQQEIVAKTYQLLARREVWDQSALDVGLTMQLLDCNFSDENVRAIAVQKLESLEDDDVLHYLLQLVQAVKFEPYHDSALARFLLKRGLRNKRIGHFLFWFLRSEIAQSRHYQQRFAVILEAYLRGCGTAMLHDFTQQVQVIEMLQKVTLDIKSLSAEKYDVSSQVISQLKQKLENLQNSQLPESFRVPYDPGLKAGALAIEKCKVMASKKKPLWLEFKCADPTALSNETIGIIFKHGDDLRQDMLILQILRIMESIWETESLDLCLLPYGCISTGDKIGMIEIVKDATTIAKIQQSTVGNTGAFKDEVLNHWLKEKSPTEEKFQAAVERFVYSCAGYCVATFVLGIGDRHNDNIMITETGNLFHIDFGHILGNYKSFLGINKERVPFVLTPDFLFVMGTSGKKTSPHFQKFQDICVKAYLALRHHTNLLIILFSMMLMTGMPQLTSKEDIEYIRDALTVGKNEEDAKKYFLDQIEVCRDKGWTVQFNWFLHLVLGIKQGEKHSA
T3 sequence (P42336 whole entry): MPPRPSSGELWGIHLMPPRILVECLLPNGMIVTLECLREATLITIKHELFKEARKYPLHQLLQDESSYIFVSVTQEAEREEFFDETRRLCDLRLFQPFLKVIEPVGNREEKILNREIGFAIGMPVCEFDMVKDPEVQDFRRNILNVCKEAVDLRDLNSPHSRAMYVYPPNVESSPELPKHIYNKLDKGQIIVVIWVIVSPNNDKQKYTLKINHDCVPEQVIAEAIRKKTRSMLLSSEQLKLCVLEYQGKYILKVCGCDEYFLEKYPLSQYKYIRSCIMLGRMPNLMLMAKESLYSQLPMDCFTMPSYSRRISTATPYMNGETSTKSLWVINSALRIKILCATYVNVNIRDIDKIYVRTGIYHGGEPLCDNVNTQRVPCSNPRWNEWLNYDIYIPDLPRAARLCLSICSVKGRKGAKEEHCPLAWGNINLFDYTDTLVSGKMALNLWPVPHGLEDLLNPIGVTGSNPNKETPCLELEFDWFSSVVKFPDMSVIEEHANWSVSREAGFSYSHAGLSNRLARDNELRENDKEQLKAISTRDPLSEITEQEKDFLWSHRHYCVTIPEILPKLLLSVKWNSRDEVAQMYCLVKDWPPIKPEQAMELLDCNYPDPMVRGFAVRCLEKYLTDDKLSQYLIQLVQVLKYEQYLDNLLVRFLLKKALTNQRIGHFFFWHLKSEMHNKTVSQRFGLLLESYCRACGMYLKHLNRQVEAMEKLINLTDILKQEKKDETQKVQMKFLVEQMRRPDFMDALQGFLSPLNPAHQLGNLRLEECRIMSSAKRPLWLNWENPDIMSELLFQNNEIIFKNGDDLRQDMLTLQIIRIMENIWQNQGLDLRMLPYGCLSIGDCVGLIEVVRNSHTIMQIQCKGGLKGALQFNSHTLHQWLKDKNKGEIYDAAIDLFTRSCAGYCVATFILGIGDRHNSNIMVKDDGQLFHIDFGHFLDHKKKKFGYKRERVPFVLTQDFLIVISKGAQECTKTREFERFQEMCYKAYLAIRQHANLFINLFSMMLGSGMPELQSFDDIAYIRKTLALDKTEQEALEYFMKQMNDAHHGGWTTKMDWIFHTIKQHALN
T3 sequence (P27986 whole entry partner): as the sequence (P27986 whole entry partner) above

Consider `C[C@H]1COCCN1c1nc2c(c(-c3ccc(NC(=O)NC4CC4)cc3)n1)CNC2` [Example 1, (S)-1-cyclopropyl-3-(4-(2-(3-methylmorpholino)-6,7-dihydro-5H-pyrrolo[3,4-d]pyrimidin-4-yl)phenyl)urea], for which the 50% inhibitory concentration (IC50) on PI3Kγ is 10 to 100 µM; at PI3Kβ, 10 to 100 µM; on PI3Kα, 10 to 100 µM; on mTOR it was 0.1 to 1 µM; at PI3Kδ it was 10 to 100 µM; in experiment [1], greater than 100 µM.
Turning to `CCNC(=O)Nc1ccc(-c2nc(N3CCOC[C@@H]3C)nc3c2CNC3)cc1` [Example 2, (S)-1-ethyl-3-(4-(2-(3-methylmorpholino)-6,7-dihydro-5H-pyrrolo[3,4-d]pyrimidin-4-yl)phenyl)urea], the IC50 at PI3Kγ fell in the range of 10 to 100 µM; at PI3Kβ it was 10 to 100 µM; on PI3Kα, 10 to 100 µM; at mTOR it was 0.1 to 1 µM; at PI3Kδ it was 10 to 100 µM; in experiment [1], 10 to 100 µM.
In the case of `CCNC(=O)Nc1ccc(-c2nc(N3CCOC[C@@H]3C)nc3c2CN(C=O)C3)cc1` [Example 3, (S)-1-ethyl-3-(4-(6-formyl-2-(3-methylmorpholino)-6,7-dihydro-5H-pyrrolo[3,4-d]pyrimidin-4-yl)phenyl)urea], the half-inhibitory concentration (IC50) at PI3Kγ was 10 to 100 µM; at PI3Kβ, 10 to 100 µM; at PI3Kα, 10 to 100 µM; on mTOR it was 0.1 to 1 µM; on PI3Kδ, 10 to 100 µM; in experiment [1], greater than 100 µM.
In the case of `CCNC(=O)Nc1ccc(-c2nc(N3CCOCC3)nc3c2CNC3)cc1` [Example 4, 1-ethyl-3-(4-(2-morpholino-6,7-dihydro-5H-pyrrolo[3,4-d]pyrimidin-4-yl)phenyl)urea], the 50% inhibitory concentration (IC50) was in the range of 10 to 100 µM on PI3Kγ; 10 to 100 µM on PI3Kβ; 1 to 10 µM at PI3Kα; 0.1 to 1 µM at mTOR; 10 to 100 µM at PI3Kδ; 10 to 100 µM in experiment [1].
As to `O=C(Nc1ccc(-c2nc(N3CCOCC3)nc3c2CNC3)cc1)NC1CC1` [Example 5, 1-cyclopropyl-3-(4-(2-morpholino-6,7-dihydro-5H-pyrrolo[3,4-d]pyrimidin-4-yl)phenyl)urea], the IC50 at PI3Kγ fell in the range of 10 to 100 µM; on PI3Kβ, 10 to 100 µM; on PI3Kα, 10 to 100 µM; at mTOR, 0.1 to 1 µM; on PI3Kδ it was 10 to 100 µM; in experiment [1] it was 10 to 100 µM.
`NC(=O)Nc1ccc(-c2nc(N3CCOCC3)nc3c2CNC3)cc1` [Example 6, 1-(4-(2-morpholino-6,7-dihydro-5H-pyrrolo[3,4-d]pyrimidin-4-yl)phenyl)urea]: the half-maximal inhibitory concentration (IC50) fell in the range of 1 to 10 µM on PI3Kγ; 1 to 10 µM on PI3Kβ; 1 to 10 µM on PI3Kα; 0.1 to 1 µM on mTOR; 1 to 10 µM on PI3Kδ; 10 to 100 µM in experiment [1].
For `CCNC(=O)Nc1ccc(-c2nc(N3CCOCC3)nc3c2CN(C(=O)OCC)C3)cc1` [Example 7, ethyl 4-(4-(3-ethylureido)phenyl)-2-morpholino-5H-pyrrolo[3,4-d]pyrimidine-6(7H)-carboxylate], the IC50 was greater than 100 µM at PI3Kγ; greater than 100 µM on PI3Kβ; greater than 100 µM on PI3Kα; 1 to 10 µM on mTOR; greater than 100 µM at PI3Kδ; greater than 100 µM in experiment [1].
For the compound `CCNC(=O)Nc1ccc(-c2nc(N3CCOC[C@@H]3C)nc3c2CN(C(=O)OCC)C3)cc1` [Example 8, (S)-ethyl 4-(4-(3-ethylureido)phenyl)-2-(3-methylmorpholino)-5H-pyrrolo[3,4-d]pyrimidine-6(7H)-carboxylate], the IC50 on PI3Kγ is greater than 100 µM; at PI3Kβ it was greater than 100 µM; at PI3Kα, greater than 100 µM; on mTOR it was 10 to 100 µM; on PI3Kδ, greater than 100 µM; in experiment [1] it was greater than 100 µM.
As to `CCOC(=O)N1Cc2nc(N3CCOC[C@@H]3C)nc(-c3ccc(NC(=O)NC4CC4)cc3)c2C1` [Example 9, (S)-ethyl 4-(4-(3-cyclopropylureido)phenyl)-2-(3-methylmorpholino)-5H-pyrrolo[3,4-d]pyrimidine-6(7H)-carboxylate], the IC50 is greater than 100 µM on PI3Kγ; greater than 100 µM on PI3Kβ; greater than 100 µM at PI3Kα; 1 to 10 µM at mTOR; greater than 100 µM on PI3Kδ; greater than 100 µM in experiment [1].
As to `CCOC(=O)Nc1ccc(-c2nc(N3CCOC[C@@H]3C)nc3c2CNC3)cc1` [Example 10, (S)-ethyl (4-(2-(3-methylmorpholino)-6,7-dihydro-5H-pyrrolo[3,4-d]pyrimidin-4-yl)phenyl)carbamate], the IC50 on PI3Kγ is greater than 100 µM; at PI3Kβ, greater than 100 µM; at PI3Kα, 10 to 100 µM; at mTOR, 10 to 100 µM; at PI3Kδ, greater than 100 µM; in experiment [1], greater than 100 µM.
With `C[C@H]1COCCN1c1nc2c(c(-c3ccc(NC(=O)NC4CC4)cc3)n1)CN(C)C2` [Example 11, (S)-1-cyclopropyl-3-(4-(6-methyl-2-(3-methylmorpholino)-6,7-dihydro-5H-pyrrolo[3,4-d]pyrimidin-4-yl)phenyl)urea], the concentration for half-maximal inhibition (IC50) lay within 10 to 100 µM at PI3Kγ; 10 to 100 µM at PI3Kβ; 10 to 100 µM at PI3Kα; 0.1 to 1 µM at mTOR; 10 to 100 µM at PI3Kδ; 10 to 100 µM in experiment [1].
On to `CC(=O)N1Cc2nc(N3CCOC[C@@H]3C)nc(-c3ccc(NC(=O)NC4CC4)cc3)c2C1` [Example 12, (S)-1-(4-(6-acetyl-2-(3-methylmorpholino)-6,7-dihydro-5H-pyrrolo[3,4-d]pyrimidin-4-yl)phenyl)-3-cyclopropylurea], for which the concentration for half-maximal inhibition (IC50) at PI3Kγ is greater than 100 µM; at PI3Kβ, 10 to 100 µM; at PI3Kα, 10 to 100 µM; at mTOR it was 1 to 10 µM; on PI3Kδ, 10 to 100 µM; in experiment [1], greater than 100 µM.

For the origin of these results see patent US20140163023A1, “DIHYDROPYRROLO PYRIMIDINE DERIVATIVES AS MTOR INHIBITORS” (Cellzome Limited, priority 2011, published 2014).
